We go through 18 molecules from patent US11932870B2, “Compositions and methods for immune cell modulation in adoptive immunotherapies” (Fate Therapeutics, Inc., priority 2016, dated 2024).

One test deals with viable CD4+ population. Description: T cell compound screen: CCR7+CD62L+ cells in the viable CD4+ population (flow cytometry). In kind it is cell-based, human. Particulars: 10 μM, about 6 days; for CD4 Hit: anti-CD3/anti-CD28 beads, hit = Z-score > +2 for percent or absolute number CCR7+CD62L+ in CD4+; for number or ratio of cells co-expressing CCR7 and CD62L: viable CD4+ population. An excerpt: (§1) In Vitro T Cell Culture. Fresh leukopaks (AllCells, Alameda, CA) were obtained from healthy donors, from which T cells were negatively selected using the EasySep Human T cell Enrichment Kit (Stem Cell Technologies, Vancouver, Canada). The freshly isolated T cells were aliquoted and cryopreserved. On the day the screens were initiated, T cells were thawed and washed into X-Vivo 15 with 5% human AB serum, IL-2, pen/strep, and additional supplements. Cells were dispensed into flat-bottom 384-well plates at 5×10^5 cells/ml with anti-CD3/anti-CD28 beads. Individual compounds were added at a final concentration of 10 μM to each well from column 3 to column 22 of each plate. Positive and negative controls were added to additional wells. Cells were incubated for about 6 days at 37 degrees with 5% CO2.
(§2) Flow Cytometry. On Day 6 of culture, cells were stained with a fixable viability marker and fluorophore-conjugated antibodies: CD3, CD4, CD8, CD45RA, CD45RO, CD62L, CCR7, CD27, and CD122 (BD Biosciences, San Jose, CA; and BioLegend, San Diego, CA). Fluorescent absolute counting beads (Spherotech, Lake Forest, IL) were added just prior to acquisition. Data acquisition was performed on a BD Fortessa X-20 (BD Biosciences) and data were analyzed using Treestar software (FlowJo, Ashland, OR) and Spotfire (Tibco, Boston, MA).
(§3) These cells are characterized by expression of CCR7 and CD62L. Therefore, cells co-expressing both of these identifying markers were evaluated. Within the viable CD4+ population and viable CD8+ population, the percent of cells co-expressing CCR7 and CD62L was determined. The expression of either CD62L or CCR7 on T cells, as indicative of the desired T cell subsets, have been described as having favorable functional characteristics for CAR-T cell therapy, and potentially other adoptive T cell therapies.
(§4) The number of events in each of these gates relative to the number of absolute counting beads in each sample was calculated, defining a measure of the absolute number of naïve, stem cell memory, or central memory T cells within the CD4+ and/or CD8+ populations. A z-Score relative to the screened compound samples within each 384-well plate was calculated for each of these four values: 1) percent CCR7+CD62L+in CD4+, 2) percent CCR7+CD62L+in CD8+, 3) absolute relative number of CCR7+CD62L+in CD4+, and 4) absolute number of CCR7+CD62L+in CD8+(FIGS. 1A and 1i). Z-scores were also calculated for the percent viability of all cells within each sample and the relative absolute number of cells within each sample. A “Z-Score” is a statistical measurement of a score's relationship to the mean in a group of scores. AZ-score of 0 means the score is the same as the mean. AZ-score can also be positive or negative, indicating whether it is above or below the mean and by how many standard deviations.
(In general: Flow cytometry measures light scatter and fluorescence of single cells or particles in a stream.)

The subject of a further test is viable CD8+ population. Description: T cell compound screen: CCR7+CD62L+ cells in the viable CD8+ population (flow cytometry). Particulars: 10 μM, about 6 days; for CD8 Hit: anti-CD3/anti-CD28 beads, hit = Z-score > +2 for percent or absolute number CCR7+CD62L+ in CD8+; for number or ratio of cells co-expressing CCR7 and CD62L: viable CD8+ population. In kind it is cell-based, human.
Description: as §1, §2, §3, §4

Each structure is given as a SMILES string. Where a name gives a salt, the structure may show the parent alone.

With `CN[C@H]1CC[C@@H](c2ccc(Cl)c(Cl)c2)c2ccccc21` [Sertraline], the “CD4 Hit” value with viable CD4+ population is recorded as “CD4”. Further, the “CD8 Hit” value with viable CD8+ population was “CD8”.
On to `CN(C)c1ccc(C=C2C(=O)Nc3ccccc32)cc1` [SU 4312], for which, in the test with viable CD8+ population, the “CD8 Hit” value is “CD8”; the “number or ratio of cells co-expressing CCR7 and CD62L” value (from here on “number or ratio”) is reported as “increased”.
In the same order, the values of `O=C(N/N=C/c1ccc([N+](=O)[O-])o1)c1ccc(O)cc1` [Nifuroxazide] are “CD8” and “increased”.
Regarding `COc1cc2nc(N3CCCN(C)CC3)nc(NC3CCN(Cc4ccccc4)CC3)c2cc1OC` [BIX01294], in the test with viable CD4+ population, the “CD4 Hit” value is given as “CD4”; the “number or ratio” value is recorded as “increased”.
In the same order, the values of `N.S=C(S)N1CCCC1` [1-Pyrrolidinecarbodithioic acid, ammonium salt] are “CD4” and “increased”.
In the same order, the values of `CCCc1nc2c(C)cc(-c3nc4ccccc4n3C)cc2n1Cc1ccc(-c2ccccc2C(=O)O)cc1` [Telmisartan] are “CD4” and “increased”.
For `CC(C)(C)c1ccc(C(O)CCCN2CCC(C(O)(c3ccccc3)c3ccccc3)CC2)cc1` (stereo not drawn) [Terfenadine], in the test with viable CD4+ population, the “CD4 Hit” value is “CD4”; the “number or ratio” value is recorded as “increased”.
In the same order, the values of `CCCc1c(-c2ccc(O)cc2)nn(-c2ccc(O)cc2)c1-c1ccc(O)cc1` [1,3,5-tris(4-hydroxyphenyl)-4-propyl-1H-pyrazole] are “CD4” and “increased”.
Taken in the same sequence, the figures for `NC1CCN(c2nc3c(cc2F)c(=O)c(C(=O)O)cn3-c2ccc(F)cc2F)C1` (stereo not drawn) [Tosufloxacin hydrochloride] were “CD4” and “increased”.
In the same order, the values of `COc1ccc(-c2cc3nccn3c(Nc3ncccc3C(N)=O)n2)cc1OC` [BAY 61-3606] are “CD4” and “increased”.
Turning to `C=CC1=C(C)c2cc3[nH]c(cc4nc(cc5[nH]c(cc1n2)c(C)c5CCC(=O)O)C(CCC(=O)O)=C4C)c(C)c3C=C` [Protoporphyrin IX disodium], in the test with viable CD4+ population, the “CD4 Hit” value was “CD4”; the “number or ratio” value is “increased”.
As for `CC[N+](C)(C)c1cccc(O)c1` [Edrophonium chloride], in the test with viable CD8+ population, the “CD8 Hit” value is on record as “CD8”; the “number or ratio” value was “increased”.
In the same order, the values of `CN(C)[C@@H]1C(=O)C(C(N)=O)=C(O)[C@@]2(O)C(=O)C3=C(O)c4c(O)ccc(Cl)c4[C@@H](O)[C@H]3C[C@@H]12.Cl` [2-Naphthacenecarboxamide, 7-chloro-4-(dimethylamino)-1,4,4a,5,5a,6,11,12a-octahy] are “CD8” and “increased”.
For the molecule `C/C=C(/C)C(=O)O[C@H]1C(C)=C2[C@H]([C@@H]1OC(=O)CCCCCCC)[C@@](C)(OC(C)=O)C[C@H](OC(=O)CCC)[C@@]1(O)[C@H]2OC(=O)[C@@]1(C)O` [Thapsigargin], in the test with viable CD8+ population, the “CD8 Hit” value is “CD8”; the “number or ratio” value is recorded as “increased”.
Consider `C[C@]12CC[C@@H]3c4ccc(O)cc4C[C@@H](CCCCCCCCC[S+]([O-])CCCC(F)(F)C(F)(F)F)[C@H]3[C@@H]1CC[C@@H]2O` (stereo partly drawn) [Fulvestrant], for which, in the test with viable CD8+ population, the “CD8 Hit” value was “CD8”; the “number or ratio” value is “increased”.
As to `CCC(CO)Nc1nc(NCc2ccccc2)c2ncn(C(C)C)c2n1` (stereo in doubt) [Roscovitine, (S)-Isomer], in the test with viable CD4+ population, the “CD4 Hit” value is given as “CD4”; the “number or ratio” value is listed as “increased”.
Taken in the same sequence, the figures for `C=CCc1cccc(/C=N/NC(=O)CN2CCN(Cc3ccccc3)CC2)c1O` [PAC-1] were “CD4” and “increased”.
Taken in the same sequence, the figures for `N#CC(=C(/N)Sc1ccccc1N)/C(C#N)=C(\N)Sc1ccccc1N` [U0126] were “CD4” and “increased”.
